Assay results published in US20240148728A1, “NOVEL METHOD TO BLOCK IN[…] DEATH AND IL-1BETA SECRETION CAUSED BY […] UV I[…] GENETIC AND CHEMICAL INHIBITORS OF ZAKA AND THE NLRP1 INFLAMMASOME” (priority 2021, published 2024).
“Also recorded” adds a separate entry of the source.

Tests used:
[1] = tested on: ASC; assay: Phosphorylation of inflammasome adaptor ASC; assay type: cell-based, human; conditions: data not shown
[2] = tested on: immortalized keratinocytes (N-TERT); assay: Pyroptosis / apoptosis in N-TERT keratinocytes (morphology, ASC-GFP, PI, Annexin V, immunoblot); assay type: cell-based, human; conditions: for mode of cell death (apoptosis / pyroptosis): Annexin V staining and PI inclusion, immunoblot markers
Excerpt: (§1) The following antibodies were used in this study: cleaved PARP1 (Abclonal, #WH162766), Cleaved CASP3 (Abclonal, #WH154646), Full length GSDMD-FL (Abcam, #ab210070), IL1β p17 specific (CST, #83186S), CARD8 (Abcam, CARD8-NT: ab19485, CARD8-CT: ab241186), DPP9 (Abcam, ab226334), c-Myc (Santa Cruz Biotechnology, #sc-40), HA tag (Santa Cruz Biotechnology, #sc-805), GAPDH (Santa Cruz Biotechnology, #sc-47724), ASC (Adipogen, #AL-177), CASP1 (Santa Cruz Biotechnology, #sc-622), 11_1B (R&D systems, #AF-201), FLAG (SigmaAldrich, #F3165), NLRP1 (R&D systems, #AF6788), IL18 (Abcam ab207324), cleaved GSDMD-NT (Asp275) (Cell Signaling Technology, #36425), RPL31 (Abclonal, #WH162766), CASP7 (Abcam, ab255818), CASP8 (Abcam, ab32397), cleaved CASP3 (Cell Signaling Technology, #9664). All horseradish peroxidase (HRP)— conjugated secondary antibodies were purchased from Jackson Immunoresearch (goat anti-mouse IgG: 115-035-166; goat anti-rabbit IgG: 111-035-144; and donkey anti-goat IgG: 705-005-147). Blue-Native PAGE was carried out using the Native-PAGE system (ThermoFisher) with 10-20 μg of total lysate. For SDS-PAGE using whole cell lysates, cells were resuspended in tris-buffered saline 1% NP-40 with protease inhibitors (Thermo Scientific, #78430). Protein concentration was determined using the Bradford assay (Thermo Scientific, #23200) and […] of protein loaded, a part from cleaved GSDMD-NT visualisation where […] of protein was used. All primary antibodies were used at 250 ng/ml. Visualisation of ASC oligomerization was previously described (Robinson et al., 2020). For analysis of IL1β and IL-18 cleavage in the media by immunoblotting, samples were concentrated using filtered centrifugation (Merck, Amicon Ultra, #UFC5003BIK). Protein samples were run using immunoblotting, and then visualized using a ChemiDoc Imaging system (Bio-Rad). PhosTag SDS-PAGE was carried out using homemade 10% SDS-PAGE gel, with addition of Phos-tag Acrylamide (Wako Chemicals, AAL-107) to a final concentration of 30 μM and manganese chloride(II) (Sigma-Aldrich, #63535) to 60 μM.
N-TERT-ASC-GFP cells were seeded at a cell density of 3000 cells/well of a 96 black well plate (PerkinElmer, CellCarrier-96 Ultra, #6055300). The next morning cells were treated with chemicals for 6 h or treated in the evening for 24 h before staining. 1 hour before observing the cells on the microscope the cells were stained with 1 μg/ml dilution of propidium iodide (PI, Abcam #ab14083), 10 ng/ml dilution of Hoechst 33342 (Life Technologies, #H21492) or stained with Annexin V Alexa Flour 647 (Life technologies, #A23204) according to the manufacturer's protocol. Stained cells were then imaged on a high content screening microscope (Perkin Elmer Operetta CLS imaging system). Images were then stored and analyzed using the Harmony software (Version 6). Fluorescent and brightfield images acquired on the Operetta high content screening microscope were further analyzed using a scoring system to categorize the percentages of live, apoptotic and pyroptotic cells. For 3 fields of view per treatment the number of live cells per field was counted from the merge of the brightfield and ASC-GFP channels. Only cells which contained ASC-GFP throughout the cytoplasm and nucleus were classed as “live”. The number of pyroptotic cells was calculated using the merge of the brightfield and ASC-GFP channels. Only the cells with GFP specks were classed as “pyroptotic”. The number of apoptotic cells was calculated using the merge of the brightfield, ASC-GFP and Annexin V channels. Cells that were stained positive for Annexin V but without a GFP speck were classified as “apoptotic”. Images of ASC-GFP specks were acquired in 3 random fields in 4′,6-diaminidino-2-phenylindole (DAPI, 358 nm/461) and GFP (469 nm/525 nm) channels using the EVOS microscope (FL Auto M5000, #AM F5000) according to the manufacturer's protocol. […]

[3] = tested on: N-TERT cells; assay: Secreted IL1β / inflammasome activation in N-TERT cells; assay type: cell-based, human; conditions: ZAKα KO N-TERT cells
Method: To measure secreted cytokine and chemokine levels a human IL1β enzyme linked immunosorbent assay (ELISA) kit (BD, #557953), human IL-18 ELISA kit (MBL, #7620) or an Immune Monitoring 65-Plex Human ProcartaPlex Panel (EPX650-10065-901) were used according to manufacturer's protocols. Further analysis of Luminex or ELISA profiling of samples was performed using heatmap and PCA analysis on Clustervis (biitdotcsdotutdotee/clustvis/) [Somani et al., Proceeding of SSIC (2019)].
as §1

[4] = tested on: 3D human organotypic skin; assay: 3D organotypic skin histology and cleaved GSDMD-NT immunostaining; assay type: cell-based; conditions: immunostaining
Method: (§2) Organotypic cultures were generated by adapting a previously described protocol (Arnette et al., 2016). Briefly, 2 ml of collagen I (4 mg/ml; Corning, #354249) mixed with 7.5×10^5 human fibroblasts were allowed to polymerize over 1-m1 acellular collagen I in 6-well culture inserts (Falcon, #353102) placed in 6-well deep well plate (Falcon, #355467). After 24 hours, 1×10^6 primary human keratinocytes were seeded into the inserts and kept submerged in a 3:1 DMEM (Hyclone, #SH30243.01) and F12 (Gibco, #31765035) mixture with 10% FBS (Hyclone, #SV30160.03), 100 U/ml penicillin-streptomycin (Gibco, #15140122), 10 μM Y-27632 (Tocris, #1254), 10 ng/ml EGF (Sigma-Aldrich, #E9644), 1×10^−10 M cholera toxin (Enzo, #BML-G117-001), 0.4 μg/ml hydrocortisone (Sigma-Aldrich, #H0888), 0.0243 mg/ml adenine (Sigma-Aldrich, #A2786), 5 μg/ml insulin (Sigma-Aldrich, #12643), 5 μg/ml transferrin (Sigma-Aldrich, #T2036) and 2×10^−9 M 3,3′,5′-triiodo-L-thyronine (Sigma-Aldrich, #T6397). After another 24 hours, the organotypic cultures were then raised at the air-liquid interface and fed with the submerged media (without Y-27632 and EGF) below the insert to induce epidermal differentiation. The air-lifting medium was replaced every 2 days and treatments began 10-14 days after airlifting. Organotypic cultures were then harvested 24 hours after treatment and formalin fixed for 24 hours. Fixed tissues were then embedded into wax for histological purposes.
For immunohistochemistry staining of cleaved N-terminal GSDMD a previously established protocol with modifications was used [Wang et al., Cell 180:941-955.e20 (2020)]. Briefly, 5 μm formalin fixed and paraffin embedded sections were deparaffinized and rehydrated through a series of alcohol. The sections were then rehydrated in an antigen retrieval buffer (Dako, Tris-EDTA, pH 9). Sections were then blocked in goat serum for 20 mins at RT before primary antibody incubated overnight at 4° C. Immunostaining was visualised using DAB substrate and chromogen detection kit (Dako, #K3468). Sections were then counterstained with Myer's Hematoxylin.

[5] = tested on: NLRP1^DR; assay: NLRP1 PYD-DR1 / NLRP1^DR phosphorylation (GFP fusion, immunoblot, PhosTag SDS-PAGE) in N-TERT cells; assay type: cell-based, human; conditions: NLRP1 KO N-TERT cells expressing GFP-tagged NLRP1^DR; various kinase inhibitors
Excerpt: as §1
Cells were directly harvested using Laemmli buffer, lysed with an ultrasonicator, and loaded into the Phos-tag gel to run. Once the run was completed, the polyacrylamide gel was washed in transfer buffer with 10 mM EDTA twice, subsequently washed without EDTA twice, blotted onto 0.45 μm PVDF membranes (Bio-rad), blocked with 3% milk, and incubated with primary and corresponding secondary antibodies.

[6] = tested on: human skin explants; assay: UVB-induced IL1β in human skin explants; conditions: UVB 100 or 250 mJ/cm^2, harvest 24 hours later
Excerpt: Waste surgical skin tissues from abdomen and breast were collected with appropriate informed consent of the patients and sent to the Asian Skin Biobank (ASB worldwidewebdota-stardotedudotsg/sris/technology-platforms/asian-skin-biobank) at the Skin Research Institute of Singapore (SRIS) (under A*STAR IRB 2020-209). Fresh skin tissue was cleaned in solutions of HBSS with decreasing concentrations of Penicillin, Streptomycin and Fungizone. Then 8-mm skin biopsies were punched and submerged in culture media. Skin explants were immediately irradiated with UVB or treated with VbP.
For UVA and UVB irradiation experiments, cells were seeded 24 hours prior to irradiation, and washed once in phosphate buffered saline pH 7.4 before being exposed to indicated dose of irradiation using a BIO-SUN microprocessor controlled, cooled UV irradiation system (BIO-SUN, Vilber). After exposure, PBS was replaced by keratinocyte medium and cells were incubated for indicated time.
To measure secreted cytokine and chemokine levels a human IL1β enzyme linked immunosorbent assay (ELISA) kit (BD, #557953), human IL-18 ELISA kit (MBL, #7620) or an Immune Monitoring 65-Plex Human ProcartaPlex Panel (EPX650-10065-901) were used according to manufacturer's protocols. […]

[7] = tested on: HB-EGF; assay: HB-EGF expression by RNAseq after TNFα priming; assay type: cell-based, human; conditions: FKPM by RNAseq
Method: Library preparation, QC and high-throughput sequencing were provided by Macrogen, Singapore. RNA isolation and library preparation was carried out as previously described [Robinson et al., Science (2020)].

[8] = tested on: 3D organotypic skin; assay: Secreted cytokines/chemokines from 3D organotypic skin (ELISA, Luminex); assay type: cell-based, human
Method: as §2, with “Fixed tissues were then embedded into wax for histological purposes.” left out

[9] = biological target: ZAKα (Homo sapiens, UniProt Q9NYL2); conditions: cited from earlier work
ZAKα, sequence (Q9NYL2 whole entry): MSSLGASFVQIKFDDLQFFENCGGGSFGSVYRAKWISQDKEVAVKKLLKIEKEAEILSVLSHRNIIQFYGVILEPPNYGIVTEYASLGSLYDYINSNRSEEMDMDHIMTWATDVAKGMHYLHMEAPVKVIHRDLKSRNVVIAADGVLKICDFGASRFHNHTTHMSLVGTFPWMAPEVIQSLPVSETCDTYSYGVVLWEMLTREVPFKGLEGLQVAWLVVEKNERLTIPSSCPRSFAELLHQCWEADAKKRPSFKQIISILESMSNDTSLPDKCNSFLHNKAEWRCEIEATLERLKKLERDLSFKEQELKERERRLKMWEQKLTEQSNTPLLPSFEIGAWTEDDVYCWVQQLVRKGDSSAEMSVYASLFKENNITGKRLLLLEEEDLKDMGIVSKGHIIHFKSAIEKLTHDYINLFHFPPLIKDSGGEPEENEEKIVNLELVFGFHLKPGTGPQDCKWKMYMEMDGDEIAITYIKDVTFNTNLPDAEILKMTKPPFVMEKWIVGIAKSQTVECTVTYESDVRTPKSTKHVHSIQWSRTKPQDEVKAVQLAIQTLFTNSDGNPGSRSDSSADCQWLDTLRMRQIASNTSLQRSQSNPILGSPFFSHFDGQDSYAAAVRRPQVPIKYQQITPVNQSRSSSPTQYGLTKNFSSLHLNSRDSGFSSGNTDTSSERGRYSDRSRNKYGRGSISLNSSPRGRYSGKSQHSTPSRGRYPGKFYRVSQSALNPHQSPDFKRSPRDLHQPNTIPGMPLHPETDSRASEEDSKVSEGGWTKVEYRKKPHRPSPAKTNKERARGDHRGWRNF

CC(C)[C@H](N)C(=O)N1CCC[C@H]1B(O)O [VbP, Talabostat]
phosphorylation of ASC [1]: not phosphorylated
mode of cell death (apoptosis / pyroptosis) [2]: exclusively triggers pyroptosis
time to induce detectable pyroptosis ([2]; wild-type N-TERT cells, PI positive cells): at least 5 hours
IL1β secretion and pyroptotic death in ZAKα KO cells [3]: remained fully sensitive
cleaved GSDMD N-terminal fragment at the cell membrane [4]: prominently enriched at the cell membrane

C=CC(=O)N1CCCC(c2ccnc(Nc3cc(C(=O)Nc4cc(-n5cnc(C)c5)cc(C(F)(F)F)c4)ccc3C)n2)C1 (stereo not drawn) [M443, 4-methyl-N-[3-(4-methylimidazol-1-yl)-5-(trifluoromethyl)phenyl]-3-[[4-(1-prop-2-enoylpiperidin-3-yl)pyrimidin-2-yl]amino]benzamide]
effect on ANS-triggered NLRP1 hyperphosphorylation [5]: can effectively block ANS-triggered NLRP1 hyperphosphorylation
effect on UVB-induced IL1β / NLRP1 activation [6]: reduction in UVB-induced IL1β; also recorded: effective at blocking UVB induced NLRP1 activation and IL1beta release

TNFα
increased expression of DT entry receptor HB-EGF [7]: > 5 fold

COc1ccc(C[C@H](N)C(=O)N[C@H]2[C@@H](O)[C@H](n3cnc4c(N(C)C)ncnc43)O[C@@H]2CO)cc1 [PURO, Puromycin]
mode of cell death (apoptosis / pyroptosis) [2]: kills cells exclusively via apoptosis
chemokine/cytokine profile versus untreated [8]: very few cytokines/chemokines differed

COc1cc(O)c2c(c1)/C=C/C[C@H](O)[C@H](O)C(=O)/C=C\C[C@H](C)OC2=O [5-Z-7-oxozeanol, 5Z-7-Oxozeaenol]
effect on ANS-triggered NLRP1 hyperphosphorylation [5]: can effectively block ANS-triggered NLRP1 hyperphosphorylation
potency against ZAKα compared with TAK1 [9]: almost the same potency as its reported target TAK1
